Reference: patent US8778935B2 (Centro Nacional de Investigaciones Oncologicas (CNIO), priority 2009, dated 2014)

The compounds below were run on phospho-Ser-473-Akt (assay: PI3K signalling: AKT phosphorylation inhibition, Western blot analysis). Conditions: Homo sapiens, cell assay, read-out: IC50 of AKT Phosphorylation Inhibition (p-AKT cell).
Format: cell-based
Procedure: Cell culture: The cell lines were obtained from the American Type Culture Collection (ATCC). U2OS (human osteosarcoma) was cultured in Dulbecco's modified Eagle's medium (DMEM). PC3 (human prostate carcinoma), MCF7 (human breast cardinoma), HCT116 (human colon carcinoma), […], U251 (human glyoblastoma) were grown in RPMI. All media were supplemented with 10% fetal bovine serum (FBS) (Sigma) and antibiotics-antimycotics. Cell were maintained in a humidified incubator at 37° C. with 5% CO2 and passaged when confluent using trypsin/EDTA.
AKT phosphorylation Inhibition. Western Blot Analysis: Subconfluent cells were incubated under different conditions and washed twice with TBS prior to lysis. Lysis buffer was added containing 50 mM Tris HCl, 150 mM NaCl, 1% NP-40, 2 mM Na3VO4, 100 mM NaF, 20 mM Na4P2O7 and protease inhibitor cocktail (Roche Molecular Biochemicals). The proteins were resolved on 10% SDS-PAGE and transferred to nitrocellulose membrane (Schleicher & Schuell, Dassel, Germany). The membranes were incubated overnight at 4° C. with antibodies specific for Akt, phospho-Ser-473-Akt (Cell Signaling Technology) and α-tubulin (Sigma), they were washed and then incubated with IRDye800 conjugated anti-mouse and Alexa Fluor 680 goat anti-rabbit IgG secondary antibodies. The bands were visualized using an Odyssey infrared imaging system (Li-Cor Biosciences).

Row | IC50 [nM] | SMILES
1 | 48 | CS(=O)(=O)N1CCN(Cc2cn3cc(-c4cccc(O)c4)nc(N4CCOCC4)c3n2)CC1 [2-10, 1-(4-((6-(3-hydroxyphenyl)-8-morpholinoimidazo[1,2-a]pyrazin-2-yl)methyl)-piperazin-1-yl)sulfonylmethane]
2 | 714 | Oc1cccc(-c2cn3cc(C(F)(F)F)nc3c(N3CCOCC3)n2)c1 [2-13, 3-(2-(trifluoromethyl)-8-morpholinoimidazo[1,2-a]pyrazin-6-yl)phenol]
3 | 391 | CS(=O)(=O)N1CCN(Cc2cn3cc(-c4cccc5[nH]ncc45)nc(N4CCOCC4)c3n2)CC1 [2-17, 6-(1H-indazol-4-yl)-2-((4-sulfonylmethylpiperazin-1-yl)methyl)-8-morpholino-imidazo[1,2-a]pyrazine]
4 | 37 | CCNC(=O)c1cn2cc(-c3cccc4[nH]ncc34)nc(N3CCOCC3)c2n1 [2-74, N-ethyl-6-(1H-indazol-4-yl)-8-morpholinoimidazo[1,2-a]pyrazine-2-carboxamide]
5 | 42 | CNC(=O)c1cn2cc(-c3cccc4[nH]ncc34)nc(N3CCOCC3)c2n1 [2-79]
6 | 87 | NC(=O)c1cn2cc(-c3cccnc3)nc(N3CCCCC3)c2n1 [2-119]
7 | 116 | O=C(NCCN1CCOCC1)c1cn2cc(-c3cccc4[nH]ncc34)nc(N3CCOCC3)c2n1 [2-142]
8 | 1050 | COCCNC(=O)c1cn2cc(-c3cccnc3)nc(N3CCOCC3)c2n1 [2-154]
9 | 34 | Nc1ncc(-c2cn3cc(C(=O)NCCN4CCOCC4)nc3c(N3CCOCC3)n2)cn1 [2-164]
10 | 379 | Nc1ncc(-c2cn3cc(C4CC4)nc3c(N3CCOCC3)n2)cn1 [2-171]

Row | SMILES | IC50 [nM]
11 | CCOC(=O)c1cn2cc(-c3cccc(O)c3)nc(N3CCOCC3)c2n1 [2-01, ethyl 6-(3-hydroxyphenyl)-8-morpholinoimidazo[1,2-a]pyrazine-2-carboxylate] | 132
12 | CS(=O)(=O)N1CCN(C(=O)c2cn3cc(-c4cccc5[nH]ncc45)nc(N4CCOCC4)c3n2)CC1 [2-16, (6-(1H-indazol-4-yl)-8-morpholinoimidazo[1,2-a]pyrazin-2-yl)(4-sulfonylmethyl-piperazin-1-yl)methanone] | 503

These compounds were tested against T1, PI3K (p110α/p85α) (Homo sapiens, UniProt P42336) (assay: PI3K Activity Assay (ADP Hunter Plus)). Conditions: PI3Kα activity, quantitative results; read-out: PI3Kα IC50.
T1 construct: purchased Carna Biosciences 07CBS-0402A
T1 sequence (P42336 whole entry): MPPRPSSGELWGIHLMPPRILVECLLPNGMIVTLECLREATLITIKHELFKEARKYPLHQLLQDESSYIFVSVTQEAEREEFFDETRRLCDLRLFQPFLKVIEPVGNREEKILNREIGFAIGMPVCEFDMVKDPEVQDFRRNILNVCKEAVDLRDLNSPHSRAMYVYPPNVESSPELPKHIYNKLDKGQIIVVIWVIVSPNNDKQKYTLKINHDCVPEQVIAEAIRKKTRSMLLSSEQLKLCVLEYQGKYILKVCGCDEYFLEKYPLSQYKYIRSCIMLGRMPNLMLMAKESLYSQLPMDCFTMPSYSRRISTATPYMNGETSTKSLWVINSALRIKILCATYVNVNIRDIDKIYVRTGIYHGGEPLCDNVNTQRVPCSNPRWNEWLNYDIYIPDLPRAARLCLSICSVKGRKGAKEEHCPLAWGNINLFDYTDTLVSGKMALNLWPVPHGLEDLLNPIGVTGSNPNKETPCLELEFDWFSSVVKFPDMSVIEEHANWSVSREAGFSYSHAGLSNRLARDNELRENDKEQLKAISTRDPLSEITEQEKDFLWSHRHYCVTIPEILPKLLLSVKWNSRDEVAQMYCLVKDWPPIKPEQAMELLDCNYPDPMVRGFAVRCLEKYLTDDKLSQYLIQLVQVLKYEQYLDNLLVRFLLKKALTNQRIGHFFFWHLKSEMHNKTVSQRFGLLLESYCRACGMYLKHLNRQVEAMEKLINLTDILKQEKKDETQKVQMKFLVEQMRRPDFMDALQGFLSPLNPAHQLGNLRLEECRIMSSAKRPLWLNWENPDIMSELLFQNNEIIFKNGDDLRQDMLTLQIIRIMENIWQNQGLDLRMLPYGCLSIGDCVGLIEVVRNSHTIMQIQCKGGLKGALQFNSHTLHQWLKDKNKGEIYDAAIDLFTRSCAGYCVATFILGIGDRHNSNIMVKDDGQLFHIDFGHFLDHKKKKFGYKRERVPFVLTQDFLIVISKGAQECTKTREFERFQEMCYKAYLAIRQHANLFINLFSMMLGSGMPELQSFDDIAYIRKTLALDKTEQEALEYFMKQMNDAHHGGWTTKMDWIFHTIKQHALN
T1 sequence (P27986 whole entry partner): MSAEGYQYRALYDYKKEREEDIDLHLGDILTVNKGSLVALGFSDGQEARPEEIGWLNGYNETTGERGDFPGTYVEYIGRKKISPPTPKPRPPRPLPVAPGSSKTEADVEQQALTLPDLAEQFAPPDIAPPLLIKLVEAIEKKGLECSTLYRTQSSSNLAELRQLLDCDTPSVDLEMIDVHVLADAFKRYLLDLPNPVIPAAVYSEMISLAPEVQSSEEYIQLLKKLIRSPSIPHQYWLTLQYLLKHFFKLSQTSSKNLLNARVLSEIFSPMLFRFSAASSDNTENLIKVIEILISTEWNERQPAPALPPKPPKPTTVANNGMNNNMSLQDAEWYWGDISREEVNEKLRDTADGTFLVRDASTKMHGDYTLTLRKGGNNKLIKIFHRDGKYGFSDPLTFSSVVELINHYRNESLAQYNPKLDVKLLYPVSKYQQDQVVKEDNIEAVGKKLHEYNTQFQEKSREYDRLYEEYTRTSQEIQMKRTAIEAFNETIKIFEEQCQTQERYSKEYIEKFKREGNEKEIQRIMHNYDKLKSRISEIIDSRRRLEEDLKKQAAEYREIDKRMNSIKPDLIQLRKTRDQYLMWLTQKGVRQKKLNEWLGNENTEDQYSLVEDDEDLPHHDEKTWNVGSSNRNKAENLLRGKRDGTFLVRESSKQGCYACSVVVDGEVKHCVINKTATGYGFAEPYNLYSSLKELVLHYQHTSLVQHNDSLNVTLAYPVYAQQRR
Format: biochemical
Procedure: The kinase activity was measured by using the commercial ADP Hunter™ Plus assay available from DiscoveRx (#33-016), which is a homogeneous assay to measure the accumulation of ADP, a universal product of kinase activity. […] Reaction was carried out for 1 hour at 25° C. Reagent A and B were sequentially added to the wells and plates were incubated for 30 min at 37° C. […] Values were normalized against the control activity included for each enzyme (i.e., 100% PI3 kinase activity, without compound). These values were plot against the inhibitor concentration and were fit to a sigmoid dose-response curve by using the Graphad software.

Row | IC50 [nM] | SMILES
13 | 50 | Nc1ncc(-c2cn3cc(C4CC4)nc3c(N3CCOCC3)n2)cn1 [2-171]
14 | 110 | Cc1cn2cc(-c3cnc(N)nc3)nc(N3CCOCC3)c2n1 [2-181]
15 | 245 | CCOC(=O)N1CCC(NC(=O)c2cn3cc(-c4cccc5[nH]ncc45)nc(N4CCOCC4)c3n2)CC1 [2-182]
16 | 170 | CS(=O)(=O)N1CCN(Cc2nc3c(N4CCOCC4)nc(-c4cccc5[nH]ncc45)cn3c2Br)CC1 [2-183]
17 | 32 | Cc1nc(N)ncc1-c1cn2cc(CN3CCN(S(C)(=O)=O)CC3)nc2c(N2CCOCC2)n1 [2-200]
18 | 3300 | CS(=O)(=O)N1CCN(Cc2cn3cc(-c4ccc(C#N)nc4)nc(N4CCOCC4)c3n2)CC1 [2-201]
19 | 10000 | COc1ccncc1-c1cn2cc(CN3CCN(S(C)(=O)=O)CC3)nc2c(N2CCOCC2)n1 [2-204]
20 | 3700 | CS(=O)(=O)N1CCN(Cc2cn3c(Cl)c(-c4ccc(C#N)nc4)nc(N4CCOCC4)c3n2)CC1 [2-206]
21 | 11 | CNc1ncc(-c2nc(N3CCOCC3)c3nc(CN4CCN(S(C)(=O)=O)CC4)cn3c2Cl)cn1 [2-207]
22 | 28 | C[C@@H]1CN(C(=O)OC(C)(C)C)C[C@H](C)N1Cc1cn2cc(-c3cnc(N)nc3)nc(N3CCOCC3)c2n1 [2-218]
23 | 25400 | COC(=O)CC1COCCN1c1nc(-c2cnc(N)nc2)cn2cc(C)nc12 (stereo not shown) [2-224]
24 | 77 | Nc1ncc(-c2cn3cc(CN4CCNCC4)nc3c(N3CCOCC3)n2)cn1 [2-226]
25 | 6090 | COC(=O)C1COCCN1c1nc(-c2cnc(N)nc2)cn2cc(C)nc12 (stereo not shown) [2-227]
26 | 114 | Nc1ncc(-c2cn3cc(CN4CCC(O)CC4)nc3c(N3CCOCC3)n2)cn1 [2-229]
27 | 34 | CN(C)CC(=O)N1CCN(Cc2cn3cc(-c4cnc(N)nc4)nc(N4CCOCC4)c3n2)CC1 [2-230]
28 | 85 | CC(=O)O[C@H](C)C(=O)N1CCN(Cc2cn3cc(-c4cnc(N)nc4)nc(N4CCOCC4)c3n2)CC1 [2-231]
29 | 16 | CC(C)(c1cn2cc(-c3cnc(N)nc3)nc(N3CCOCC3)c2n1)N1CCN(S(C)(=O)=O)CC1 [2-242]
30 | 144 | Cc1cnc2c(N3CCOCC3)nc(-c3ccc(NC(=O)Nc4cccc(C(=O)O)c4)cc3)cn12 [2-244]

Same assay, conditions: quantitative results of Table 4; read-out: PI3Kα IC50

Row | IC50 [nM] | SMILES
31 | 7200 | CC(C)(C)OC(=O)N1CCC2(CCN(Cc3cn4cc(-c5cccc6[nH]ncc56)nc(N5CCOCC5)c4n3)CC2)CC1 [2-98]
32 | 7900 | CC(C)(C)OC(=O)N1CC2CN(Cc3cn4cc(-c5cccc6[nH]ncc56)nc(N5CCOCC5)c4n3)CC2C1 (stereo not shown) [2-99]
33 | 5300 | CC(C)(C)OC(=O)N1CCC2(CCN(Cc3cn4cc(-c5cccc6[nH]ncc56)nc(N5CCOCC5)c4n3)C2)CC1 [2-100]
34 | 34000 | NC(=O)c1cn2cc(-c3cccc4[nH]cc(Cl)c34)nc(N3CCOCC3)c2n1 [2-103]
35 | 93000 | NC(=O)c1cn2c(Cl)c(-c3cccc4[nH]cc(Cl)c34)nc(N3CCOCC3)c2n1 [2-104]
36 | 123000 | NC(=O)c1cn2cc(-c3c(F)ccc4[nH]cc(Cl)c34)nc(N3CCOCC3)c2n1 [2-105]
37 | 28000 | NC(=O)c1cn2c(Cl)c(-c3c(F)ccc4[nH]cc(Cl)c34)nc(N3CCOCC3)c2n1 [2-106]
38 | 2600 | COC(=O)Cc1cn2cc(-c3cccc4[nH]ncc34)nc(N3CCOCC3)c2n1 [2-107]
39 | 1000 | COc1ccc(-c2nc(N3CCOCC3)c3nc(CN4CCN(S(C)(=O)=O)CC4)cn3c2Cl)cn1 [2-109]
40 | 813 | c1cc(-c2cn3cc(CN4CCC5(CCNCC5)CC4)nc3c(N3CCOCC3)n2)c2cn[nH]c2c1 [2-111]
41 | 851 | c1cc(-c2cn3cc(CN4CC5CNCC5C4)nc3c(N3CCOCC3)n2)c2cn[nH]c2c1 (stereo not shown) [2-117]
42 | 1500 | c1cc(-c2cn3cc(CN4CCC5(CCNCC5)C4)nc3c(N3CCOCC3)n2)c2cn[nH]c2c1 [2-118]
43 | 93 | NC(=O)c1cn2cc(-c3cccnc3)nc(N3CCCCC3)c2n1 [2-119]
44 | 1300 | NC(=O)c1cn2cc(-c3cnc(N)nc3)nc(N3CCCCC3)c2n1 [2-120]
45 | 50000 | CS(=O)(=O)N1CCN(Cc2cn3cc(-c4c(F)ccc5[nH]cc(Cl)c45)nc(N4CCOCC4)c3n2)CC1 [2-122]
46 | 776 | Cc1ccc(-c2cn3cc(CN4CCN(S(C)(=O)=O)CC4)nc3c(N3CCOCC3)n2)cn1 [2-126]
47 | 2500 | CS(=O)(=O)N1CCC2(CCN(Cc3cn4cc(-c5cccc6[nH]ncc56)nc(N5CCOCC5)c4n3)C2)CC1 [2-129]
48 | 1400 | O=C1NCCC12CCN(Cc1cn3cc(-c4cccc5[nH]ncc45)nc(N4CCOCC4)c3n1)CC2 [2-130]

Row | IC50 [nM] | SMILES
49 | 14000 | O=C1CC2(CCN(Cc3cn4cc(-c5cccc6[nH]ncc56)nc(N5CCOCC5)c4n3)CC2)CN1 [2-131]
50 | 5200 | CS(=O)(=O)N1CCC2(CCN(Cc3cn4cc(-c5cccc6[nH]ncc56)nc(N5CCOCC5)c4n3)CC2)C1 [2-134]
51 | 12 | CCOC(=O)c1cn2cc(-c3cnc(N)nc3)nc(N3CCOCC3)c2n1 [2-138]
52 | 65 | CN(C)CCNC(=O)c1cn2cc(-c3cccc4[nH]ncc34)nc(N3CCOCC3)c2n1 [2-141]
53 | 38 | O=C(NCCN1CCOCC1)c1cn2cc(-c3cccc4[nH]ncc34)nc(N3CCOCC3)c2n1 [2-142]
54 | 832 | CN(C)CCNC(=O)c1cn2cc(-c3cccnc3)nc(N3CCOCC3)c2n1 [2-147]
55 | 1300 | CS(=O)(=O)N1CCC2(CCN(Cc3cn4cc(-c5cccc6[nH]ncc56)nc(N5CCOCC5)c4n3)CC2)CC1 [2-149]
56 | 2800 | CS(=O)(=O)N1CCC2(CC1)CN(Cc1cn3cc(-c4cccc5[nH]ncc45)nc(N4CCOCC4)c3n1)C2 [2-150]
57 | 468 | Cc1ccncc1-c1cn2cc(CN3CCN(S(C)(=O)=O)CC3)nc2c(N2CCOCC2)n1 [2-152]
58 | 2400 | COc1cc(C)c(-c2cn3cc(CN4CCN(S(C)(=O)=O)CC4)nc3c(N3CCOCC3)n2)cn1 [2-153]
59 | 166 | COCCNC(=O)c1cn2cc(-c3cccnc3)nc(N3CCOCC3)c2n1 [2-154]
60 | 776 | CC(=O)NCCNC(=O)c1cn2cc(-c3cccc4[nH]ncc34)nc(N3CCOCC3)c2n1 [2-157]
61 | 2300 | CC(=O)NCCNC(=O)c1cn2cc(-c3cccnc3)nc(N3CCOCC3)c2n1 [2-158]
62 | 398 | O=C(NCCN1CCOCC1)c1cn2cc(-c3cccnc3)nc(N3CCOCC3)c2n1 [2-159]
63 | 11 | Nc1ncc(-c2cn3cc(C(=O)NCCN4CCOCC4)nc3c(N3CCOCC3)n2)cn1 [2-164]
64 | 1800 | Cc1cn2cc(-c3cnc(N)nc3)nc(-c3ccncc3)c2n1 [2-166]
65 | 26000 | Cc1cn2cc(-c3cccc4[nH]ncc34)nc(-c3ccncc3)c2n1 [2-168]
66 | 110 | CS(=O)(=O)N1CCC2(CC1)CN(Cc1cn3cc(-c4cnc(N)nc4)nc(N4CCOCC4)c3n1)C2 [2-169]

Same assay, conditions: quantitative results; read-out: PI3Kα IC50

Row | IC50 [nM] | SMILES
67 | 108 | Oc1cccc(-c2cn3cc(C(F)(F)F)nc3c(N3CCOCC3)n2)c1 [2-13, 3-(2-(trifluoromethyl)-8-morpholinoimidazo[1,2-a]pyrazin-6-yl)phenol]
68 | 92 | CCNC(=O)c1cn2cc(-c3cccc4[nH]ncc34)nc(N3CCOCC3)c2n1 [2-74, N-ethyl-6-(1H-indazol-4-yl)-8-morpholinoimidazo[1,2-a]pyrazine-2-carboxamide]
69 | 110 | CNC(=O)c1cn2cc(-c3cccc4[nH]ncc34)nc(N3CCOCC3)c2n1 [2-79]

Row | SMILES | IC50 [nM]
70 | CCOC(=O)c1cn2cc(-c3cccc(O)c3)nc(N3CCOCC3)c2n1 [2-01, ethyl 6-(3-hydroxyphenyl)-8-morpholinoimidazo[1,2-a]pyrazine-2-carboxylate] | 158
71 | CS(=O)(=O)N1CCN(C(=O)c2cn3cc(-c4cccc5[nH]ncc45)nc(N4CCOCC4)c3n2)CC1 [2-16, (6-(1H-indazol-4-yl)-8-morpholinoimidazo[1,2-a]pyrazin-2-yl)(4-sulfonylmethyl-piperazin-1-yl)methanone] | 254

Same assay, conditions: semi-quantitative results; read-out: PI3Kα IC50 (semi-quantitative class)

Row | SMILES | IC50 [nM]
72 | CCOC(=O)c1cn2cc(-c3cccc(O)c3)nc(N3CCOCC3)c2n1 [2-01, ethyl 6-(3-hydroxyphenyl)-8-morpholinoimidazo[1,2-a]pyrazine-2-carboxylate] | 100 to 1000
73 | Oc1cccc(-c2cn3cc(C(F)(F)F)nc3c(N3CCOCC3)n2)c1 [2-13, 3-(2-(trifluoromethyl)-8-morpholinoimidazo[1,2-a]pyrazin-6-yl)phenol] | 100 to 1000
